Results from patent US10927105B1 (Lundbeck La Jolla Research Center, Inc., priority 2017, dated 2021).

Target: MAGL (Homo sapiens (Human), UniProt Q99685)
Test: In vitro competitive activity-based protein profiling (human prefrontal cortex membrane fractions, FP-Rh probe), MAGL band
Details: read-out: MAGL IC50 (μM) (human); human prefrontal cortex membrane fractions

Chain of MAGL (Q99685 whole entry): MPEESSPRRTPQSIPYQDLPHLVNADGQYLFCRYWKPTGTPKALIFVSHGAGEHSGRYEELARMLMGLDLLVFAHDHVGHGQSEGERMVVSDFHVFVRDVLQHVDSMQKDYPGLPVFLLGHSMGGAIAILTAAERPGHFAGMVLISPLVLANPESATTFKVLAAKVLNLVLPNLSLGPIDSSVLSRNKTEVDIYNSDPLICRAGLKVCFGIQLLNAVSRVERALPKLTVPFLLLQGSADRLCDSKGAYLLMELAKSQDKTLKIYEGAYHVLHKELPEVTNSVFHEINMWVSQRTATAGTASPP

| SMILES | IC50 [µM] |
| --- | --- |
| O=C(O)c1ccn(C(=O)N2CCC3(CCN(Cc4ccc(-c5ccccc5)cc4C(F)(F)F)C3)CC2)n1 [Example 170, 1-(2-((3-(trifluoromethyl)-[1,1′-biphenyl]-4-yl)methyl)-2,8-diazaspiro[4.5]-decane-8-carbonyl)-1H-pyrazole-3-carboxylic acid] | < 0.1 |
| NC(=O)c1ccn(C(=O)N2CCN(Cc3cnccc3C(F)(F)F)CC2)n1 [Example 175, 1-(4-((4-(trifluoromethyl)-pyridin-3-yl)methyl)-piperazine-1-carbonyl)-1H-pyrazole-3-carboxamide] | < 0.1 |
| NC(=O)c1ccn(C(=O)N2CCC3(CCN(Cc4ccc(N5CCOCC5)cc4Cl)C3)CC2)n1 [Example 197, 1-(2-(2-chloro-4-morpholinobenzyl)-2,8-diazaspiro[4.5]-decane-8-carbonyl)-1H-pyrazole-3-carboxamide] | < 0.1 |
| NC(=O)c1ccn(C(=O)N2CCN(Cc3cccc(C(F)(F)F)c3N3CCOCC3)CC2)n1 [Example 199, 1-(4-(2-morpholino-3-(trifluoromethyl)-benzyl)piperazine-1-carbonyl)-1H-pyrazole-3-carboxamide] | < 0.1 |
| CN(Cc1cc(Cl)ccc1C(F)(F)F)CC1CCN(C(=O)n2ccc(C(=O)O)n2)CC1 [Example 209, 1-(4-(((5-chloro-2-(trifluoromethyl)-benzyl)-(methyl)amino)-methyl)piperidine-1-carbonyl)-1H-pyrazole-3-carboxylic acid] | < 0.1 |
| CC(C)(O)COc1cccc(CN2CCN(C(=O)n3ccc(C(=O)O)n3)CC2)c1Cl [Example 213, 1-(4-(2-chloro-3-(2-hydroxy-2-methylpropoxy)-benzyl)piperazine-1-carbonyl)-1H-pyrazole-3-carboxylic acid] | < 0.1 |
| C[C@@H]1CN(Cc2cccc(OCC(C)(C)O)c2Cl)CCN1C(=O)n1ccc(C(N)=O)n1 [Example 216, (R)-1-(4-(2-chloro-3-(2-hydroxy-2-methylpropoxy)-benzyl)-2-methylpiperazine-1-carbonyl)-1H-pyrazole-3-carboxamide] | < 0.1 |
| O=C(O)c1ccn(C(=O)N2CCC3(CCN(Cc4cc(Cl)ccc4C(F)(F)F)CC3)CC2)n1 [Example 217, 1-(9-(5-chloro-2-(trifluoromethyl)-benzyl)-3,9-diazaspiro[5.5]-undecane-3-carbonyl)-1H-pyrazole-3-carboxylic acid] | < 0.1 |
| O=C(O)c1ccn(C(=O)N2C[C@H]3C[C@H](Oc4cccc(C5CC5)c4)C[C@H]3C2)n1 [Example 219, 1-(trans-5-(3-cyclopropyl-phenoxy)-octahydrocyclopenta-[c]pyrrole-2-carbonyl)-1H-pyrazole-3-carboxylic acid] | < 0.1 |
| CC(C)c1cccc(O[C@H]2C[C@@H]3CN(C(=O)n4ccc(C(=O)O)n4)C[C@@H]3C2)c1 [Example 220, 1-(trans-5-(3-isopropylphenoxy)-octahydrocyclopenta-[c]pyrrole-2-carbonyl)-1H-pyrazole-3-carboxylic acid] | < 0.1 |
| CC(C)c1ccccc1O[C@H]1C[C@@H]2CN(C(=O)n3ccc(C(=O)O)n3)C[C@@H]2C1 [Example 221, 1-(trans-5-(2-isopropylphenoxy)-octahydrocyclopenta-[c]pyrrole-2-carbonyl)-1H-pyrazole-3-carboxylic acid] | < 0.1 |
| O=C(O)c1ccn(C(=O)N2C[C@H]3C[C@H](Oc4cc(F)cc(Cl)c4)C[C@H]3C2)n1 [Example 222, 1-(trans-5-(3-chloro-5-fluorophenoxy)-octahydrocyclopenta-[c]pyrrole-2-carbonyl)-1H-pyrazole-3-carboxylic acid] | < 0.1 |
| O=C(O)c1ccn(C(=O)N2C[C@H]3C[C@H](Oc4cc(Cl)cc(Cl)c4)C[C@H]3C2)n1 [Example 230, 1-(trans-5-(3,5-dichlorophenoxy)-octahydrocyclopenta-[c]pyrrole-2-carbonyl)-1H-pyrazole-3-carboxylic acid] | < 0.1 |
| O=C(O)c1ccn(C(=O)N2C[C@H]3C[C@H](Oc4cccc(C(F)(F)F)c4)C[C@H]3C2)n1 [Example 231, 1-(trans-5-(3-(trifluoromethyl)-phenoxy)-octahydrocyclopenta-[c]pyrrole-2-carbonyl)-1H-pyrazole-3-carboxylic acid] | < 0.1 |
| O=C(O)c1ccn(C(=O)N2C[C@H]3C[C@H](Oc4cccc(C5CCCC5)c4)C[C@H]3C2)n1 [Example 232, 1-(trans-5-(3-cyclopentyl-phenoxy)-octahydrocyclopenta-[c]pyrrole-2-carbonyl)-1H-pyrazole-3-carboxylic acid] | < 0.1 |
| O=C(O)c1ccn(C(=O)N2C[C@H]3C[C@H](Oc4cccc(N5CCCC5)c4)C[C@H]3C2)n1 [Example 234, 1-(trans-5-(3-(pyrrolidin-1-yl)phenoxy)-octahydrocyclopenta-[c]pyrrole-2-cathonyl)-1H-pyrazole-3-carboxylic acid] | < 0.1 |
| Cc1c(COC2CCN(C(=O)n3ccc(C(=O)O)n3)CC2)cccc1C(F)(F)F [Example 235, 1-(4-((2-methyl-3-(trifluoromethyl)-benzyl)oxy)-piperidine-1-carbonyl)-1H-pyrazole-3-carboxylic acid] | < 0.1 |
| Cc1ccc(COC2CCN(C(=O)n3ccc(C(=O)O)n3)CC2)cc1C(F)(F)F [Example 236, 1-(4-((4-methyl-3-(trifluoromethyl)-benzyl)oxy)-piperidine-1-carbonyl)-1H-pyrazole-3-carboxylic acid] | < 0.1 |
| O=C(O)c1ccn(C(=O)N2C[C@H]3C[C@H](Oc4ccccc4-c4ccccc4)C[C@H]3C2)n1 [Example 239, 1-(trans-5-([1,1′-biphenyl]-2-yloxy)-octahydrocyclopenta-[c]pyrrole-2-carbonyl)-1H-pyrazole-3-carboxylic acid] | < 0.1 |
| O=C(O)c1ccn(C(=O)N2C[C@H]3C[C@H](Oc4ccc(-c5ccccc5)cc4)C[C@H]3C2)n1 [Example 240, 1-(trans-5-([1,1′-biphenyl]-4-yloxy)-octahydrocyclopenta-[c]pyrrole-2-carbonyl)-1H-pyrazole-3-carboxylic acid] | < 0.1 |
| O=C(O)c1ccn(C(=O)N2C[C@H]3C[C@H](Oc4cccc(-c5cccnc5)c4)C[C@H]3C2)n1 [Example 241, 1-(trans-5-(3-(pyridin-3-yl)phenoxy)-octahydrocyclopenta-[c]pyrrole-2-carbonyl)-1H-pyrazole-3-carboxylic acid] | < 0.1 |

Now from value to molecule:

| IC50 [µM] | SMILES |
| --- | --- |
| < 0.1 | O=C(O)c1nn(C(=O)N2CCC3(CCN(Cc4cc(Cl)ccc4C(F)(F)F)C3)CC2)cc1Cl [Example 133, 4-chloro-1-(2-(5-chloro-2-(trifluoromethyl)-benzyl)-2,8-diazaspiro[4.5]-decane-8-carbonyl)-1H-pyrazole-3-carboxylic acid] |
| < 0.1 | O=C(O)c1nn(C(=O)N2CCC3(CC2)CN(Cc2cc(Cl)ccc2C(F)(F)F)C3)cc1Cl [Example 134, 4-chloro-1-(2-(5-chloro-2-(trifluoromethyl)-benzyl)-2,7-diazaspiro[3.5]-nonane-7-carbonyl)-1H-pyrazole-3-carboxylic acid] |
| < 0.1 | O=C(O)c1nn(C(=O)N2CC3CN(Cc4cc(Cl)ccc4Cl)CC3C2)cc1Cl (centres unmarked) [Example 136, 4-chloro-1-(5-(2,5-dichlorobenzyl)-octahydropyrrolo-[3,4-c]pyrrole-2-carbonyl)-1H-pyrazole-3-carboxylic acid] |
| < 0.1 | O=C(O)c1nn(C(=O)N2CCC3(CCN(Cc4ccc(N5CCCC5)cc4C(F)(F)F)C3)CC2)cc1Cl [Example 138, 4-chloro-1-(2-(4-(pyrrolidin-1-yl)-2-(trifluoromethyl)-benzyl)-2,8-diazaspiro[4.5]-decane-8-carbonyl)-1H-pyrazole-3-carboxylic acid] |
| < 0.1 | O=C(O)c1nn(C(=O)N2CC3CN(Cc4ccc(N5CCCC5)cc4C(F)(F)F)CC3C2)cc1Cl (centres unmarked) [Example 140, 4-chloro-1-(5-(4-(pyrrolidin-1-yl)-2-(trifluoromethyl)-benzyl)-octahydropyrrolo-[3,4-c]pyrrole-2-carbonyl)-1H-pyrazole-3-carboxylic acid] |
| < 0.1 | O=C(O)c1nn(C(=O)N2CCC3(CCN(Cc4cc(Cl)ccc4C(F)(F)F)C3)CC2)cc1C(F)(F)F [Example 148, 1-(2-(5-chloro-2-(trifluoromethyl)-benzyl)-2,8-diazaspiro[4.5]-decane-8-carbonyl)-4-(trifluoromethyl)-1H-pyrazole-3-carboxylic acid] |
| < 0.1 | O=C(O)c1ccn(C(=O)N2C[C@H]3C[C@H](OCc4cccc(C(F)(F)F)c4)C[C@H]3C2)n1 [Example 157, 1-(trans-5-((3-(trifluoromethyl)-benzyl)oxy)-octahydrocyclopenta-[c]pyrrole-2-carbonyl)-1H-pyrazole-3-carboxylic acid] |
| < 0.1 | Cc1c(CO[C@H]2C[C@@H]3CN(C(=O)n4ccc(C(=O)O)n4)C[C@@H]3C2)cccc1C(F)(F)F [Example 159, 1-(trans-5-((2-methyl-3-(trifluoromethyl)-benzyl)oxy)-octahydrocyclo-penta-nl [c]pyrrole-2-carbonyl)-1H-pyrazole-3-carboxylic acid] |
| < 0.1 | O=C(O)c1ccn(C(=O)N2CCC3(CCN(Cc4cc(Cl)cc(Cl)c4)C3)CC2)n1 [Example 162, 1-(2-(3,5-dichlorobenzyl)-2,8-diazaspiro[4.5]-decane-8-carbonyl)-1H-pyrazole-3-carboxylic acid] |
| < 0.1 | O=C(O)c1ccn(C(=O)N2C[C@H]3C[C@@H](Oc4cccc(-c5ccccc5)c4)C[C@H]3C2)n1 [Example 164, 1-(cis-5-([1,1′-biphenyl]-3-yloxy)-octahydrocyclopenta-[c]pyrrole-2-carbonyl)-1H-pyrazole-3-carboxylic acid] |
| < 0.1 | O=C(O)c1ccn(C(=O)N2CCN(Cc3ccc(N4CCCC4)cc3C(F)(F)F)CC2)n1 [Example 167, 1-(4-(4-(pyrrolidin-1-yl)-2-(trifluoromethyl)-benzyl)piperazine-1-carbonyl)-1H-pyrazole-3-carboxylic acid] |
